Data as given in publication PMC8583417, “Evaluation of the Antimicrobial Efficacy of N-Acetyl-L-Cysteine, Rhamnolipids, and Usnic Acid—Novel Approaches to Fight Food-Borne Pathogens” (International Journal of Molecular Sciences, 2021).

Experiments:
[1] = tested on: L. monocytogenes 149; experiment: MIC for reduction of preformed biofilm (crystal violet staining); assay type: cell-based, Listeria monocytogenes; conditions: for MICBR80: ≥80% reduction of preformed biofilm (18 h), 20 h with substance
Protocol: (§1) Ten concentrations of NAC, RLs, and UA were tested to determine the minimum inhibitory concentration for planktonic growth, and subsequently, the six highest concentrations were applied on preformed biofilms to evaluate the biofilm eradication ability of the compounds. MIC was defined as the lowest substance concentration able to inhibit at least 80% of microbial growth (MICPC80 for planktonic cells, MICBC80 for further growth of biofilm cells), inhibit 80% of metabolic activity (MICBM80 for biofilm metabolic activity, MICMPB80 for metabolic activity of preformed biofilm), prevent biofilm formation by at least 80% (MICBF80 for biofilm formation), or reduce a preformed biofilm by at least 80% (MICBR80 for biofilm reduction). The results of MICs are summarized in Table 1 (planktonic cells) and Table 2 (biofilm-associated cells).
(§2) The determination of MICs was performed according to Chlumsky et al.. Briefly, 96-well flat-bottomed microtiter plates were inoculated with 75 µL (for biofilm formation) or 100 µL (for preformed biofilm) of bacterial suspension (A625nm 0.08 to 0.1) in technical triplicates and were then carefully mixed with the dilution series of the test substances (24 h cultivation at 25 °C for S. Infantis, 37 °C for other strains) or were directly cultivated to preform biofilms (18 h). For a positive control of bacterial growth, the inoculum was mixed with a pure sterile medium. Furthermore, the sterile medium was included in the plate as a marker of potential microbial contamination. To evaluate planktonic cells growth (MICPC80) and further growth of biofilm cells (MICBC80), the optical density of the content of the microtiter plates was measured spectrophotometrically at 625 nm before and after 24 h (for biofilm formation) of cultivation or before and after additional 20 h incubation with the tested compound (for preformed biofilm). The difference of A625nm was considered as a measure of the ability of cells to grow in the presence of the tested substances. To evaluate the inhibition of biofilm formation (MICBF80) and reduction in preformed biofilms (MICBR80), biomass was quantified using crystal violet staining, and its metabolic activity (MICBM80 and MICMPB80) was estimated by using the MTT (thiazyl tetrazolium bromide, Sigma-Aldrich, USA) reduction assay, both measured spectrophotometrically at 595 nm.
(§3) All inhibitions were calculated using the formula of Chlumsky et al. below (Equation (1)):(1) A625(595)nm inhibition (%)=A625(595)nm (control) – A625(595)nm(natural substance)/A625(595)nm (control)× 100 where A625(595)nm (control) is the absorbance of bacterial suspension/biofilm itself, and A625(595)nm(natural substance) is the absorbance of the bacterial suspension/biofilm with the added natural substance (NAC, RLs, and UA).
(§4) When the minimum inhibitory concentration could not be determined, the MIC was established as >the highest tested concentration for NAC, RLs, and UA.

[2] = tested on: L. monocytogenes 164; experiment: as above; assay type: cell-based, Listeria monocytogenes; conditions: for MICBR80: ≥80% reduction of preformed biofilm (18 h), 20 h with substance
Protocol: as §1, §2, §3, §4

[3] = tested on: S. Enteritidis ATCC 13076; experiment: CLSM analysis, biofilm removal (preformed biofilm); assay type: cell-based, Salmonella enterica Enteritidis; conditions: 20 h exposure, mean ± SD; for Thickness (µm) subCBM80: substance at subinhibitory concentration
Protocol: (§5) Biofilm prevention and removal analyses were performed using previously determined minimum inhibitory and subinhibitory concentrations for metabolic activity (MICBM80, subCBM80; MICMPB80, subCMPB80) of NAC, RLs, and UA specific for each tested strain. Selected concentrations were used to evaluate the inhibition of biofilm formation (biofilm prevention) and the reduction in previously formed biofilms (biofilm removal) for the same set of microorganisms, with the exception of S. Infantis, which was excluded from the analysis due to its inability to form biofilm in the selected microtiter plate. Biofilm prevention and removal were observed using CLSM with specific staining to distinguish between live and membrane-compromised cells. Images were analyzed to evaluate (i). the total volume of the biomass, (ii). ratios of live and membrane-compromised cells, and (iii). to calculate biofilm volume reduction for individual organisms after the respective treatment types. The total biofilm volume was normalized by the area of the well and expressed as an average biofilm thickness. Complete data are provided in Supplementary Materials (Tables S1–S8).
At first, bacterial suspensions were cultivated in microtiter plates to produce overnight biofilms (18 h). […] cells were then washed out, and the remaining biofilms were further cultivated for an additional 20 h with selected compounds. Following biofilm cultivation, biomass was observed using CLSM with live/membrane-compromised cell staining. Biomass images from biofilm removal treatments were similar to results from biofilm prevention, where biomass was highly diversified across the bacterial species and strains. Visually, biomass images were fairly consistent within the quadruplicates for each tested organism. Non-treated biofilms of S. aureus contained consistent biomass spread across the well (S. aureus 816) or grown around the edges (S. aureus 1241). […]
For both inhibition and reduction of biofilms, overnight cultures from BHI were diluted in TSB + 1% Glc to reach an absorbance of 0.08 to 0.1 at 625 nm. […]

[4] = tested on: E. coli 683/17; experiment: CLSM analysis, biofilm removal (preformed biofilm); assay type: cell-based, Escherichia coli; conditions: for Thickness (µm) subCBM80: substance at subinhibitory concentration
Protocol: as §5
At first, bacterial suspensions were cultivated in microtiter plates to produce overnight biofilms (18 h). […] cells were then washed out, and the remaining biofilms were further cultivated for an additional 20 h with selected compounds. Following biofilm cultivation, biomass was observed using CLSM with live/membrane-compromised cell staining. Biomass images from biofilm removal treatments were similar to results from biofilm prevention, where biomass was highly diversified across the bacterial species and strains. Visually, biomass images were fairly consistent within the quadruplicates for each tested organism. Non-treated biofilms of S. aureus contained consistent biomass spread across the well (S. aureus 816) or grown around the edges (S. aureus 1241). […] PI staining identified membrane-compromised cells spread across S. aureus 816 biomass and incorporated in the edge of biomass and/or in the central part of the well (Figure 4B,C). […] Membrane-compromised cells appeared contained around the edges (S. aureus 1241), disturbed across the well (in both strains of L. monocytogenes), or in separated biomass in the central part of the well (in both strains of E. coli when treated with the subinhibitory concentration of RLs) (Figure 4D,E).
For both inhibition and reduction of biofilms, overnight cultures from BHI were diluted in TSB + 1% Glc to reach an absorbance of 0.08 to 0.1 at 625 nm. The inoculum (150 µL) was transferred into wells of the 96-well flat-bottomed Ibidiμ-Plate (Ibidi, Gräfelfing, Germany) and mixed with 150 µL of each of the three tested substances in technical quadruplicates, followed by incubation at 37 °C for 24 h. Simultaneously, the prepared bacterial suspensions were inoculated to an additional microtiter plate (200 µL) and allowed to form biofilm overnight (18 h at 37 °C). After the incubation, the content of the well was drained off, and 200 µL of each of the three tested substances was added to the plate, which was then incubated for an additional 20 h. The used concentrations of the substances represented the subinhibitory and minimum inhibitory concentrations for metabolic activity (subCBM80, MICBM80; subCMPB80, MICMPB80). Both setups contained a positive control of the bacterial growth (inoculum mixed with sterile TSB + 1% Glc medium) and a control monitoring microbial contamination (sterile medium). Non-treated wells were used as a positive control for comparison between non-treated and treated biofilm mass.
Prior to the imaging, the wells were stained with the LIVE/DEAD® BacLight™ Bacterial Viability Kit (Thermo Fisher Scientific, MA, USA) following the manufacturer’s guidelines and Drago et al.. […]

[5] = tested on: S. Infantis S59; experiment: MIC for biofilm metabolic activity (MTT reduction assay); assay type: cell-based, Salmonella enterica Infantis; conditions: for MICBM80: ≥80% inhibition, 24 h
Protocol: as §1, §2, §3, §4

[6] = tested on: S. Infantis S13; experiment: as above; assay type: cell-based, Salmonella enterica Infantis; conditions: for MICBM80: ≥80% inhibition, 24 h
Protocol: as §1, §2, §3, §4

[7] = preformed biofilm, within tested concentrations
[8] = preformed biofilm, 20 h exposure, mean ± SD

Row | SMILES | MICBR80 [1] | maximal achieved inhibition (MICBR80 not reached), biofilm reduction [2, 7] [%] | MICBR80 [2] | Thickness (µm) MICBM80 ([3]; substance at its MIC) [µm] | Thickness (µm) subCBM80 [3] [µm] | Thickness (µm) MICBM80 ([4]; preformed biofilm, 20 h exposure, substance at its MIC, mean ± SD) [µm] | Thickness (µm) subCBM80 [4, 8] [µm] | MICBM80 [5] [µg/mL] | MICBM80 [6] | maximal achieved inhibition (MICBR80 not reached), biofilm reduction [1, 7] [%] | proportion of membrane-compromised cells ([4]; 20 h, subinhibitory concentration) | maximal achieved inhibition (MICBM80 not reached) ([5]; within tested concentrations) [%] | maximal achieved inhibition (MICBM80 not reached) ([6]; within tested concentrations) [%]
1 | CC(=O)N[C@@H](CS)C(=O)O [NAC, N-Acetyl-L-cysteine] | 100,000 µg/mL | 46 | > 100,000 µg/mL | 212 ± 16.6 | 229 ± 54.9 | 153 ± 33.3 | 128 ± 31.6 | 6250 | 12,500 µg/mL |  |  |  | 
2 | CC(=O)c1c(O)c(C)c(O)c2c1OC1=CC(=O)C(C(C)=O)C(=O)C12C (single isomer, unassigned; (+)) [UA, (+)-usnic acid] | > 31.3 µg/mL |  | 1.96 µg/mL |  | 203 ± 19.8 |  | 285 ± 38.5 | > 31.3 | > 31.3 µg/mL | 69 | up to 40% | 47 | 41
